ChEMBL document CHEMBL1141126, “Improving the antiviral efficacy and selectivity of HIV-1 reverse transcriptase inhibitor TSAO-T by the introduction of functional groups at the N-3 position” (J Med Chem, 2005)

Assays:
[1] = molecular target: Human immunodeficiency virus type 1 reverse transcriptase (Human immunodeficiency virus 1, UniProt Q72547); assay: Inhibitory concentration required to inhibit recombinant HIV-1 reverse transcriptase
CCRF-CEM [2] = assay: Cytostatic concentration required to inhibit cell proliferation in human CEM cell line; Range 10-50; format: functional
CCRF-CEM [3] = assay: Ratio of cytostatic concentration to effective concentration in human CEM cell line; Range 1000-5000; format: functional
[4] = system: Human immunodeficiency virus 1; assay: Effective concentration required to inhibit HIV-1 induced cytopathicity in human CEM cell line; format: functional, organism-based; details: Human immunodeficiency virus 1, CCRF-CEM
[5] = system: Human immunodeficiency virus 2; assay: Effective concentration required to inhibit HIV-2 induced cytopathicity in human CEM cell line; format: functional, organism-based; details: Human immunodeficiency virus 2, CCRF-CEM
[6] = system: Human immunodeficiency virus 2; assay: Effective concentration required to inhibit HIV-2 induced cytopathicity in human MT-4 cell line; format: functional, organism-based; details: Human immunodeficiency virus 2, MT4
[7] = system: Human immunodeficiency virus 1; assay: Effective concentration required to inhibit HIV-1/138K induced cytopathicity in human CEM cell line; format: functional, organism-based; details: Human immunodeficiency virus 1, CCRF-CEM
CCRF-CEM [8] = assay: Cytostatic concentration required to inhibit cell proliferation in human CEM cell line; format: functional
CCRF-CEM [9] = assay: Ratio of cytostatic concentration to effective concentration in human CEM cell line; format: functional
[10] = system: Human immunodeficiency virus 1; assay: Effective concentration required to inhibit HIV-1 induced cytopathicity in human MT-4 cell line; format: functional, organism-based; details: Human immunodeficiency virus 1, MT4

Compound	IC50 [1]	CC50 (CCRF-CEM [2])	SI (CCRF-CEM [3])	EC50 [4]	EC50 [5]	EC50 [6]	EC50 [7]	CC50 (CCRF-CEM [8])	SI (CCRF-CEM [9])	EC50 [10]
CNC(=O)CCCCn1c(=O)c(C)cn([C@@H]2O[C@H](CO[Si](C)(C)C(C)(C)C)[C@@]3(OS(=O)(=O)C=C3N)[C@H]2O[Si](C)(C)C(C)(C)C)c1=O	0.56 µM	50 µM	5000	0.01 µM	> 10 µM	> 10 µM	≥ 2 µM	–	–	–
CCCCOC(=O)CN(CCCn1c(=O)c(C)cn([C@@H]2O[C@H](CO[Si](C)(C)C(C)(C)C)[C@@]3(OS(=O)(=O)C=C3N)[C@H]2O[Si](C)(C)C(C)(C)C)c1=O)CC(=O)OCCCC	> 500 µM	–	–	3.5 µM	> 250 µM	> 250 µM	> 250 µM	> 250 µM	71	12.8 µM
